pIC50: −log10 of the molar value. Values joined by “and” are separate entries in the source; they are usually repeats but may differ in a detail not shown here. Equal values may be shown once. Read-outs that look alike come from different tables or passages of the source.
What was measured:
[1] = system: P. vivax oocysts and sporozoites in Anopheles darlingi; experiment: Direct membrane feeding assay (DMFA), P. vivax gametocytes, A. darlingi mosquitoes; type: in vivo, Plasmodium vivax; settings: for reduction of the density of sporozoites per mosquito: 14 days after feeding; for reduction in the oocyst density per mosquito midgut: day 7
Experimental: Participants were recruited from patients diagnosed with P. vivax malaria via Giemsa-stained blood smears at CEPEM in Porto Velho, Rondônia, Brazil (#28176720.9.0000.0011). Criteria included: P. vivax parasitemia >2000 parasites/μL, age 18–85, no severe malaria, no concomitant diseases, nonpregnant, and consent to study procedures. Approximately 10 mL of venous blood was collected into heparin-coated vials, maintained at 37 °C, and transported to PIVEM for DMFA. Malaria treatment followed Brazilian Ministry of Health guidelines and was unaffected by study participation.
Anopheles darlingi mosquitoes are maintained in the PIVEM insectary at Fiocruz Rondônia since 2018. Mosquitoes were raised at a temperature of 26 °C ± 1 °C and a relative humidity of 70 ± 10%, being fed a 15% honey solution.
Before the DMFA, female mosquitoes were starved of sucrose overnight. Six P. vivax isolates were used, and 40–100 mosquitoes per group were fed P. vivax-infected blood for 30 min using a Hemotek membrane feeder at 37 °C. Unfed mosquitoes were removed, and engorged ones were maintained for sporogony, receiving a 15% honey solution refreshed every 2 days. Midguts were dissected on day 7 and salivary glands on day 14 postblood feeding, to assess midgut oocyst load and salivary gland sporozoite load, respectively.
Mosquitoes were anesthetized on ice, immersed in 70% ethanol, and dissected in PBS. Midguts were stained with 0.2% mercurochrome and examined microscopically for oocysts. Salivary glands were pooled (5 mosquitoes per sample), and homogenized in 15 μL RPMI, and sporozoites were counted using a Neubauer chamber.

[2] = system: P. falciparum multidrug-resistant strains; experiment: SYBR Green growth assay, summary over panel of resistant strains; type: cell-based; settings: Plasmodium falciparum
Experimental: Healthy blood samples for parasite culture were obtained from voluntary donors (approved under protocol #28176720.9.0000.0011), processed to remove white blood cells, and stored at 2 °C–8 °C for up to 15 days. Parasite strains SB1-A6, 7G8, V1/S, and HB3 were acquired from BEI-MR4, while the ATQ R1 strain, carrying a V259L gene mutation, was generated in-house. Infected erythrocytes were cultured in RPMI 1640 medium supplemented with Hepes, sodium bicarbonate, glucose, Albumax, and gentamicin, […], and incubated in a 5% CO2, 5% O2, and 90% N2 gas mixture at 37 °C with daily medium changes. Parasitemia was monitored using Giemsa-stained blood smears.
Bioassays were conducted with synchronized ring-stage parasites using sorbitol synchronization. Antimalarial compounds were evaluated in 96-well plates, and parasite growth was assessed using a SYBR Green-based fluorescence assay The assays were conducted when the parasite quantity reached at least 70% of the ring stage. […]
To assess parasite growth, the culture medium was replaced with a lysis solution (Trisbase: 49.31%, EDTA: 30.00%, Saponin: 0.16%, Triton: 0.02%) containing the fluorescent dye SYBR Green (Sigma). […] The IC50 values were determined using concentration–response curves generated in GraphPad 8 software. […]

[3] = system: P. berghei sexual phases in An. stephensi; experiment: In vivo transmission-blocking assay, P. berghei infected CD1 mice, An. stephensi; design: species or system Plasmodium berghei; settings: 2 doses of 50 mg/kg 12 h apart
Experimental: For this assay, a colony of An. stephensi was used. The lab-reared An. stephensi was kept under controlled conditions, with a temperature of 26 °C ± 1 °C, a 12/12 h light/dark cycle, a relative humidity of 70% ± 10%, and fed a 30% sugar solution as needed.
Female CD1 mice (4 to 6 weeks old) were infected by intraperitoneal inoculation (i.p.) containing 10 million erythrocytes infected with P. berghei expressing the GFP fluorescent protein. After 4 days, when parasites in the sexual stages were detected via Giemsa-stained blood smears, mice with similar gametocytemia and parasitemia were randomly divided into three groups of two animals each. The groups of two mices were treated orally with compound 1 at two doses of 50 mg/kg, spaced 12 h apart. […] Following the second dose, mice were anesthetized and placed in individual cages containing approximately 50 female A. stephensi mosquitoes, which had been starved for 24 h before the assay. Blood feeding lasted for 30 min, after which unfed mosquitoes were removed. Engorged females were maintained in an insectary at 21 ± 1 °C and 60% relative humidity, receiving a 30% glucose solution.
A group of 10 mosquitoes was set aside to assess sporozoite development in salivary glands, following a protocol similar to the one described previously, with dissections performed 21 days postblood meal. Additionally, 10 μL of mouse blood was collected immediately after treatment with the compounds and incubated at room temperature for 15 min. Exflagellation was observed under optical microscopy to evaluate the effect of 4-quinolone-derived molecules on microgametocyte activity.

P. vivax ookinetes = experiment: Ex vivo P. vivax ookinete formation assay with patient isolates; type: cell-based, Plasmodium vivax; settings: 24 h
Experimental: Participants were recruited from patients diagnosed with P. vivax malaria via Giemsa-stained blood smears at CEPEM in Porto Velho, Rondônia, Brazil (#28176720.9.0000.0011). Criteria included: P. vivax parasitemia >2000 parasites/μL, age 18–85, no severe malaria, no concomitant diseases, nonpregnant, and consent to study procedures. Approximately 10 mL of venous blood was collected into heparin-coated vials, maintained at 37 °C, and transported to PIVEM for DMFA. Malaria treatment followed Brazilian Ministry of Health guidelines and was unaffected by study participation. […] Erythrocytes were washed with incomplete RPMI-1640 medium by centrifugation at 1500 rpm for 10 min to remove leukocytes. […] The sample was centrifuged once at 450 g for 15 min without a brake. After centrifugation, the pellet remaining at the interface was collected and washed twice at 2000 g for 5 min. […] The parasites were incubated for 24 h at a temperature of 21–24 °C. After this period, the activity of the compounds was determined by microscopy, counting 100 fields to determine the parasitemia per μL in each sample, and counting the mature and immature ookinetes. […] Red blood cells were then washed with incomplete RPMI-1640 medium through centrifugation at 1500 rpm for 10 min to remove leukocytes. […] The sample was centrifuged once at 2000 rpm for 15 min without brake. After centrifugation, the remaining pellet at the interface was collected and washed twice at 2000 rpm for 5 min. […] Parasites were incubated for 24 h at a temperature of 21–24 °C. After this period, compound activity was determined by microscopy counting in 100 fields to determine parasitemia per μL in each sample.

[4] = Plasmodium vivax, read-out: P. vivax ookinete formation inhibition (median)

CCCCCCCCCCCc1cc(=O)c2ccccc2[nH]1 [compound 1, 2-Undecilquinolin-4(1H)-one]
reduction of infection prevalence ([1]; 2 μM): 31% | reduction of the density of sporozoites per mosquito ([1]; 2 μM): 39% | reduction in the oocyst density per mosquito midgut ([1]; 2 μM): 74% | reduction of infection prevalence ([1]; 10 μM): 71% | reduction in the oocyst density per mosquito midgut ([1]; 10 μM): 95% | pIC50 ([2]; HB3, read-out: IC50 values): 6.10 to 7.22 | pIC50 ([2]; TM90C6B, read-out: submicromolar activity): 6.10 to 6.54 | Prevalence of infection in An. stephensi mosquitoes (Positive) [3]: 70% | reduction in the infection rate (salivary glands) ([3]; 21 days postinfection): 91% | reduction in the number of P. berghei sporozoites (in vivo) ([3]; 21 days postinfection, 50 mg/kg): 91,30% and 91% | reduction in male exflagellation centers (in vivo) ([3]; blood at mosquito feeding, 50 mg/kg): 85,17% and 85% | inhibition at 0.4 µM (P. vivax ookinetes; Plasmodium vivax, 0.4 μM, read-out: P. vivax ookinete formation inhibition (median)): 70% | inhibition at 2 µM (P. vivax ookinetes; [4]): 84% | inhibition at 10 µM (P. vivax ookinetes; Plasmodium vivax, 10 μM, n = 6 patients, read-out: P. vivax ookinete formation inhibition (median)): 97%

CCCCCCOc1ccc(-c2cc(=O)c3ccccc3[nH]2)cc1 [compound 6, 2-(4-(Hexyloxy)-phenyl)-quinolin-4(1H)-one]
reduction of the density of sporozoites per mosquito ([1]; 2 μM): 31% | reduction in the oocyst density per mosquito midgut ([1]; 2 μM): 29% | reduction of the density of sporozoites per mosquito ([1]; 10 μM): 10% | reduction in the oocyst density per mosquito midgut ([1]; 10 μM): 53% | P. vivax ookinete formation inhibition (median) (P. vivax ookinetes; 0.4 μM): no activity | inhibition at 2 µM (P. vivax ookinetes; [4]): 83%

Source: paper PMC12631437, “Evaluation of the Activity of 4‑Quinolones against Multi-Life Stages of Plasmodium spp” (ACS Omega, 2025)
